# According to patent publication US9771332B2, “2-thiopyrimidinones” (Pfizer Inc., priority 2015, dated 2017):
# Structures can show the parent of a compound that is named as a salt. Where two headings read alike, the source gives them in different places.
# Columns and labels:
# hERG potassium channel = target: T1, hERG potassium channel (Homo sapiens, UniProt Q12809); experiment: hERG Assay (Qpatch HT automated patch clamp, hERG-transfected CHO cells); type: cell-based; details: for Therapeutic ratio hERG IC50/MPO IC50: hERG IC50 divided by MPO IC50 in human whole blood; for inhibition at 5 min, 100 µM: at 100 uM; for inhibition at 5 min, 300 µM: at 300 uM
# T1 construct: host or cells: CHO cells (PrecisiON hERG-CHO Recombinant Cell Line)
# Procedure: All testing was carried out in CHO cells transfected with the hERG gene purchased from Millipore (PrecisiON hERG-CHO Recombinant Cell Line CYL3038). The cell line was grown in DMEM/F-12, GlutaMAX™ with 10% fetal bovine serum, 1% Penicillin-Streptomycin, 1% Geneticin and 1% of 1M HEPES buffer solution, and maintained at approximately 37° C. in a humidified atmosphere containing 5% carbon dioxide. The cells were passaged every 3-5 days based on confluency. On the day of the experiment, 50%-80% confluent cells were harvested from a 175 cm^2 culture flask using Detachin™. After 10 minutes of exposure to Detachin™ at 37° C., the cells were centrifuged for 1 minute at 1000 RPM. The supernatant was removed and the cell pellet was reconstituted in 5-8 mL of serum free media with 2.5% of 1M HEPES, placed on the Qstirrer™, and allowed to recover. After a ˜30 minute recovery period, experiments were initiated.
# hERG current was elicited and recorded using the automated Qpatch HT™ system (as described in Kutchinsky J, Friis S, Asmild M, et al. Characterization of potassium channel modulators with QPatch automated patch-clamp technology: system characteristics and performance. Assay Drug Dev Technol 2003; 1(5):685-93). The suspended cells in the Qstirrer™ were transferred to 48 individual recording chambers on a Qplate 48™ containing extracellular recording saline composed of (in mM): 138 NaCl, 5.3 KCl, 1.3 CaCl2, 0.5 MgCl2, 5.6 Glucose, 5 HEPES, 0.4 MgSO4, 0.44 KH2PO4, 4.2 NaHCO3, 0.34 Na2HPO4, and adjusted to pH 7.4±0.1 with NaOH. The intracellular recording saline was composed of (in mM): 130 KCl, 1 MgCl2, 10 HEPES, 5 Mg-ATP, and 5 EGTA, and adjusted to pH 7.2±0.1 with KOH. Membrane currents were recorded at room temperature.
# hERG current was elicited from a holding potential of −80 mV with a voltage step to +30 mV for 1 second, followed by a ramp back to −80 mV at 0.55 mV/ms. Test pulses were delivered at a frequency of 0.25 Hz. Up to 4 different concentrations were studied on each cell, each exposure lasting 5 minutes or until steady-state effects were observed. In a separate set of experiments, a full concentration-response relationship and an IC50 was determined for a positive control, cisapride, (Jules C. Hancox, Mark J. McPate, Aziza El Harchi, Yi hong Zhang, The hERG potassium channel and hERG screening for drug-induced torsades de pointes, Pharmacology & Therapeutics, Volume 119, Issue 2, August 2008, Pages 118-132).
# Using Sophion Qpatch Assay Software, the amplitude of the peak outward hERG current upon repolarizing ramp was measured. Current amplitude was determined by taking the average of the last 5 current peaks under each treatment condition. Percent inhibition was determined by taking the ratio of the current measured at steady state in the presence of test article (ITest article) versus the control current (Icontrol), and expressed as: % inhibition=100−(ITest article/IControl)*100. When possible, a concentration-response curve was plotted and the data were fitted using Qpatch software to determine an IC50.
# MPO = target: T2, MPO (Homo sapiens, UniProt P05164); experiment: Human Whole Blood Assay for Irreversible Inhibition of MPO; type: cell-based; details: LPS-stimulated human whole blood, 4 hour incubation; irreversible inhibition of active MPO
# T2 construct: endogenous in cells; host or cells: human whole blood leukocytes, LPS-stimulated
# Procedure: To measure the inhibition of MPO activity in a biological system in the present invention, bioassays were performed with human whole blood that was collected from medication-free, human volunteers in heparin treated tubes (APP Pharmaceuticals, LLC, cat # NDC#63323-047-10, #4710). Blood was aliquoted and treated with different concentrations of the MPO inhibitor or vehicle control and co-treated with or without bacterial lipopolysaccharide (LPS, InVivogen) to stimulate blood leukocytes to simultaneously generate H2O2 (a required MPO substrate) and the release of MPO. After a 4 hour incubation at room temperature the plasma fraction was collected following a 2000×g centrifugation at 4° C.
# The plasma fraction was divided in two for analysis of total MPO and active MPO. The total MPO content was determined using a standard sandwich ELISA (capture and detection antibodies: Cell Sciences, Cat# HP9048, and Cell Sciences, Cat# HM2164, clone 266-6K1) and calculated relative to a standard curve of purified MPO (myeloperoxidase, Calbiochem, cat#475911) that was prepared by dilution in the autologous donor plasma. The MPO activity is determined by capturing the total MPO from plasma using the capture step as described for the above ELISA method. […] The MPO activity of the captured material was compared to that obtained with a standard curve of purified MPO (myeloperoxidase, Calbiochem, cat#475911) that was prepared in autologous donor plasma. The percent of ‘active’ myeloperoxidase for each sample was calculated from the ratio of the active myeloperoxidase in the Amplex Red assay and the total myeloperoxidase from the ELISA for each sample. A dose response curve of the compound concentration versus MPO activity was then plotted to determine the IC50 value.
# [1] = fit to a concentration-response curve, read-out: hERG IC50 (determined by curve fitting)
# [2] = extrapolated from single-point % inhibition, read-out: hERG IC50 (extrapolated from % activity shown)
# T2 sequence (P05164 279-745 limits assumed): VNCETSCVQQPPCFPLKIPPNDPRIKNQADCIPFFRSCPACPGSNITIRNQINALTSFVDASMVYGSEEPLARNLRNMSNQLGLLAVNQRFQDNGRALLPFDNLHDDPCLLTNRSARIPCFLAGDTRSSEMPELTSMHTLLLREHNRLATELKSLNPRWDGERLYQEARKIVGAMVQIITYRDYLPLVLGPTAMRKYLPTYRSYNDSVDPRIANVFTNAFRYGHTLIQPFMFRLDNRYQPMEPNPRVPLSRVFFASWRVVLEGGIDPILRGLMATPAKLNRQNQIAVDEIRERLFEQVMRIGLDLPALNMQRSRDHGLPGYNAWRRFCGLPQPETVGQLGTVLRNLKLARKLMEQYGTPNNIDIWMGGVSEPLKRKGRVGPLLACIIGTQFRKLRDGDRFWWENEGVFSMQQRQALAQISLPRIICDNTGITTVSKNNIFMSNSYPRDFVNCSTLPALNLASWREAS
# T2 sequence (P05164 165-273 limits assumed): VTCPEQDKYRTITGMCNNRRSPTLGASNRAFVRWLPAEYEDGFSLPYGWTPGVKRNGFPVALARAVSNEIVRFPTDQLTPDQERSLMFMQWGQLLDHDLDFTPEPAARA
# T1 sequence (Q12809 whole entry): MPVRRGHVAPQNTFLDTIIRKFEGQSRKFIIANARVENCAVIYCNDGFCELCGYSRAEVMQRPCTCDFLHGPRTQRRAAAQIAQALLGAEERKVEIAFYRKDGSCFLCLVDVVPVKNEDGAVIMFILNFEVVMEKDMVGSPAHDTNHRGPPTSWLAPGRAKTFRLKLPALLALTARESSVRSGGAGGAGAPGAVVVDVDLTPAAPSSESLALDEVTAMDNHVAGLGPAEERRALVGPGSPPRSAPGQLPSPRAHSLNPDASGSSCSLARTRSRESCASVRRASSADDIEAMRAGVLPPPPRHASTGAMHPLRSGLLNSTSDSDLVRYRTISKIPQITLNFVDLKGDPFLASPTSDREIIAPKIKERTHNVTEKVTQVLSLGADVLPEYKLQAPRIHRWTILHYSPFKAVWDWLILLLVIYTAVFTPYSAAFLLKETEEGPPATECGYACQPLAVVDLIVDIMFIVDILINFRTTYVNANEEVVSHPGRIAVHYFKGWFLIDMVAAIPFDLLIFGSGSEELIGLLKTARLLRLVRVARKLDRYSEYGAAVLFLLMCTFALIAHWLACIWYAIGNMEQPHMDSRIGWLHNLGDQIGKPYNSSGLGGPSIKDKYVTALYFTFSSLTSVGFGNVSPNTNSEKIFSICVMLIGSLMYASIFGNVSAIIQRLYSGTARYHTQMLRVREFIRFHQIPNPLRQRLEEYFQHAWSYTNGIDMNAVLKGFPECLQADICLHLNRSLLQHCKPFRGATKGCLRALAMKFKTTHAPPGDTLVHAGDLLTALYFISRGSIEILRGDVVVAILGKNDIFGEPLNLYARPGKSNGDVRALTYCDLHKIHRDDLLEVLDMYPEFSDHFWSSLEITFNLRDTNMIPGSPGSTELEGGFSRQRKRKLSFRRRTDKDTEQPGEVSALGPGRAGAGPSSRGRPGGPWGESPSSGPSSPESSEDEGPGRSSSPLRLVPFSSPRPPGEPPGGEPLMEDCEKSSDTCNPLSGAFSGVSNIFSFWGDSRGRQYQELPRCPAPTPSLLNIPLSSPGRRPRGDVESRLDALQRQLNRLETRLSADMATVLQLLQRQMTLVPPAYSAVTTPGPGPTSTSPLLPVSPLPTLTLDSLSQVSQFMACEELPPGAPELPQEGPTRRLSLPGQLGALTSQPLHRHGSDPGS
compound,measurement,setting,value
COc1ccc(Cl)cc1-c1cc(=O)[nH]c(=S)n1CCN [C],IC50,hERG potassium channel; [1],33 µM
same,Therapeutic ratio hERG IC50/MPO IC50,hERG potassium channel,41
same,"inhibition at 5 min, 30 µM","hERG potassium channel; human, pH 7.4, at 30 uM",49%
same,"inhibition at 5 min, 100 µM","hERG potassium channel; human, pH 7.4",75%
same,IC50,MPO,0.8 µM
"Cc1ccc(OCCO)c(-c2cc(=O)[nH]c(=S)n2CCN)c1 [Compound A, 1-(2-Aminoethyl)-6-(2-(2-hydroxyethoxy)-5-methylphenyl)-2-thioxo-2,3-dihydropyrimidin-4(1H)-one hydrochloride]",hERG IC50/MPO IC50 safety ratio over compound C,hERG potassium channel; 5515/41,135 times
same,hERG IC50/MPO IC50 safety ratio over compound D,hERG potassium channel; 5515/162,34 times
same,hERG IC50/MPO IC50 safety ratio over compound E,hERG potassium channel; 5515/260,21 times
same,hERG IC50/MPO IC50 safety ratio over compound F,hERG potassium channel; 5515/900,6.1 times
same,hERG IC50/MPO IC50 safety ratio over compound G,hERG potassium channel; 5515/1500,3.7 times
same,IC50,hERG potassium channel; [2],3030 µM
same,Therapeutic ratio hERG IC50/MPO IC50,hERG potassium channel,5515
same,"inhibition at 5 min, 300 µM","hERG potassium channel; human, pH 7.4",9%
same,IC50,MPO,0.55 µM
COc1ccc(C)cc1-c1cc(=O)[nH]c(=S)n1CC(N)=O [Compound B],IC50,MPO,2.5 µM
NCCn1c(-c2cc(Cl)ccc2OCCO)cc(=O)[nH]c1=S [Compound E],IC50,hERG potassium channel; [2],335 µM
same,Therapeutic ratio hERG IC50/MPO IC50,hERG potassium channel,260
same,"inhibition at 5 min, 100 µM","hERG potassium channel; human, pH 7.4",23%
same,IC50,MPO,1.3 µM
COc1ccc(C)cc1-c1cc(=O)[nH]c(=S)n1CCN [D],IC50,hERG potassium channel; [1],160 µM
same,Therapeutic ratio hERG IC50/MPO IC50,hERG potassium channel,162
same,"inhibition at 5 min, 100 µM","hERG potassium channel; human, pH 7.4",40%
same,"inhibition at 5 min, 300 µM","hERG potassium channel; human, pH 7.4",63%
same,IC50,MPO,0.99 µM
"COc1ccc(Cl)cc1-c1cc(=O)[nH]c(=S)n1CC(N)=O [F, 2-(6-(5-chloro-2-methoxyphenyl)-4-oxo-2-thioxo-3,4-dihydropyrimidin-1(2H)-yl)acetamide]",IC50,hERG potassium channel; [2],1700 µM
same,"inhibition at 5 min, 300 µM","hERG potassium channel; human, pH 7.4",15%
"COc1ccc(-c2cc(=O)[nH]c(=S)n2CC(=O)NCCN)c(OC)c1 [G, N-(2-aminoethyl)-2-[6-(2,4-dimethoxyphenyl)-4-oxo-2-thioxo-3,4-dihydropyrimidin-1(2H)-yl]acetamide]",IC50,hERG potassium channel; [2],900 µM
same,Therapeutic ratio hERG IC50/MPO IC50,hERG potassium channel,1500
same,"inhibition at 5 min, 300 µM","hERG potassium channel; human, pH 7.4",25%
same,IC50,MPO,0.6 µM
